From patent US12527774B2, “Estrogen-related receptor alpha modulators” (LEAD PHARMA HOLDING B.V., priority 2019, dated 2026) come the findings set out here.

For one assay, the target named is full length ERRα (Homo sapiens (Human), UniProt P11474). Description: Full Length ERRα Reporter Gene Assay. The class given is cell-based. As to conditions: SK-BR-3 cells, ERRα-RE luciferase reporter, overnight incubation; read-out: mean pIC50 (converted). The source says:
Full Length ERRα Reporter Gene Assay
A method was established to quantitatively screen the potency of compounds with inverse agonistic activity on the nuclear receptor ERRα of the human species. The assay allows intra-cellular screening of ERRα inverse agonists in SK-BR-3 cells using an over-expression construct coding full length ERRα and a reporter construct containing an ERRα Response Element (RE) and a luciferase gene for read out. The activity is expressed in log IC50 values and can be used to determine SAR of compound families or to de-select compounds.
In this assay, reporter cells are obtained by transient co-transfection of two constructs in SK-BR-3 cells using standard transfection techniques. The first construct contains a response element of the nuclear receptor ERRα (Plasmid pLP2175, Reporter construct ERRα-RE/luc2P, cloned variant of ERRα_v2_synthRE, Switchgear Genomics, Catalog Number S900089). This sequence drives the transcription of the luciferase reporter gene in response to binding of an ERRα protein encoded by the second construct (Plasmid pLP2124: full length ERRα expression construct using pcDNA3.1/Hygro(+) as background, Invitrogen Catalog Number V87020).
The day after transfection, cells were plated into 96 well plates, test compound was added and the plates were incubated overnight. Subsequently, the firefly luciferase activity was quantified using luciferase detection reagent and luminescence readout.
Detailed Assay Description
Transfection is performed on pre-seeded SK-BR-3 cells in a T175 flask. One transfected T175 flask is sufficient for seeding 3 to 4 MW96 plates the next day, depending on the confluency of the transfected cells.
Two different media are used in this protocol for cell treatment: 1) Culture medium, i.e. McCoy's 5a with phenol red (BioWhittaker Supplier Number 12-688F), 10% FBS and 1× Penstrep.; and, 2) Assay medium, i.e. McCoy's 5a Medium phenol red free (HyClone Product Code SH30270.01) with 2% Charcoal Stripped FBS and 1× Penstrep. Compound dilutions are prepared in assay medium.
Cells are seeded at least 2 days in advance to allow the cells to adhere well to flask before transfection. Cells should be 50-80% confluent at the day of transfection.
SKBR3 cells were transfected with the transcriptional reporter construct pLP2175 and the ERRα expression construct pLP2124 (as described above).
68 μL of Lipofectamine LTX transfection reagent (Invitrogen Catalog Number 15338-100) was added dropwise to 8.9 ml Opti-MEM I Reduced Serum Medium (Gibco Catalog Number 51985-026) and incubated at room temperature for 5 to 20 minutes. 8.9 ml of this reagent mixture was added to 22 μg pLP2175+22 μg pLP2124 (ratio 1:1 and total volume 10 ml), and incubated at room temperature for 25 minutes.
10 minutes before adding the transfection mix to SKBR3 cells in a T175 flask, the culture medium was refreshed with 20 mL culture medium. Subsequently, the 10 mL DNA-Opti-MEM-Lipofectamine mixture was gently added to the cells, followed by overnight (16-24 hours) incubation at 37° C. and 5% CO2.
To harvest SKBR3 cells from a T175 flask, first the medium was removed. Subsequently, cells were washed with Phosphate Buffered Saline (PBS) (Lonza), after which the PBS was removed. To dissociate the cells, 2 ml of TrypLE Express (Invitrogen) was added to the flask, followed by incubation at 37° C. for 5 minutes. The flask was tapped until cells were detached from the bottom. Cells were collected in 8 mL of culture medium (McCoy's 5α, 10% FBS, penstrep), to achieve a single cell suspension. After cell count, cells were spun down for 5 minutes at 300 g. Next cell pellets were re-suspended to 25000 cells/80 μl assay medium (McCoy's 5a phenol red free, 2% charcoal stripped FBS, penstrep).
For compound screening, the cells were harvested (as described above). 80 μL of cell suspension (25,000 cells) was plated per well into a white, flat bottom, tissue culture treated, 96 well screening plates (Greiner). […]

For assay [1], the target named is ERRα ligand binding domain (ERRα-LBD) (Homo sapiens (Human), UniProt P11474). Description: ERRα AlphaScreen Assay. As to conditions: disruption of binding of ERRα-LBD protein to biotin-PGC1α-3 co-activator peptide; for IC50: read-out: mean pIC50 (converted). The class given is biochemical. The essentials:
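Disruption of co-activator binding read by AlphaScreen: compounds in triplicate, 1% DMSO, Tris pH 7.5 buffer, room temperature. Bacterially expressed 6His-SUMO-ERRα-LBD at 0.81 nM with beads for 1 h, then 15 nM biotinylated PGC1α peptide for 2 h. IC50 from four-parameter fits, averaged as pIC50.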

A value given as a limit tells only on which side of the number the result lay.

Sequence of ERRα ligand binding domain (ERRα-LBD) (P11474 193-421): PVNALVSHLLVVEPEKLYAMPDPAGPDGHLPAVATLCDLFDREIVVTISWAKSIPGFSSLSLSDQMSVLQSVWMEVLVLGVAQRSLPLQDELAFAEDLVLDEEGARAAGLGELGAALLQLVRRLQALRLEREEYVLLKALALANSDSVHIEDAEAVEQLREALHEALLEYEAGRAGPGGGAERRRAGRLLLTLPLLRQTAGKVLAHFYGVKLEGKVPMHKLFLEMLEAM
Sequence of full length ERRα (P11474 whole entry): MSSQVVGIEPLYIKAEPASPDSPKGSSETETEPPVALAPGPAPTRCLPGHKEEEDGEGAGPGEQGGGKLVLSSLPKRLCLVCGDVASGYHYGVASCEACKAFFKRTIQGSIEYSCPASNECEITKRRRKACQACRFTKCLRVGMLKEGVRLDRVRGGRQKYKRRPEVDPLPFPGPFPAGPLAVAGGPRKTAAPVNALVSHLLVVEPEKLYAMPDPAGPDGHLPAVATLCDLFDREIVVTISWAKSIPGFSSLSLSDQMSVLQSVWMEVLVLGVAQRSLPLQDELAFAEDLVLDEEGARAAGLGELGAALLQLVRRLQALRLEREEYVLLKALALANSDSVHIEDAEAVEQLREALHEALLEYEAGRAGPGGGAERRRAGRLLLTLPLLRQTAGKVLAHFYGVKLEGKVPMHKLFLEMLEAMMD

As for `COc1cc(C2CC(=O)Nc3n[nH]cc32)ccc1OCc1ccc(C2CC2)cc1C(F)(F)F` (centres unmarked) [Example 145, 4-(4-{[4-cyclopropyl-2-(trifluoromethyl)phenyl]methoxy}-3-methoxyphenyl)-2H,4H,5H,6H, 7H-pyrazolo[3,4-b]pyridin-6-one], the IC50 on full length ERRα is not above 316 nM. In assay [1], the “mean pIC50” value is given as not below 8.
The corresponding values for `COc1ccc(COc2ccc(C3CC(=O)Nc4n[nH]cc43)cc2OC)c(C(F)(F)F)c1` (centres unmarked) [Example 19, 4-(3-methoxy-4-{[4-methoxy-2-(trifluoromethyl)phenyl]methoxy}phenyl)-2H,4H,5H,6H,7H-pyrazolo[3,4-b]pyridin-6-one] are not above 316 nM and not below 8.
On to `COc1cc(C2CC(=O)Nc3n[nH]cc32)ccc1OCc1cc(C)ccc1C(F)(F)F` (centres unmarked) [Example 32, 4-(3-methoxy-4-{[5-methyl-2-(trifluoromethyl)phenyl]methoxy}phenyl)-2H,4H,5H,6H,7H-pyrazolo[3,4-b]pyridin-6-one], for which the IC50 on full length ERRα was not above 316 nM. The “mean pIC50” value in assay [1] is recorded as not below 8.
The corresponding values for `COc1cc(C2CC(=O)Nc3n[nH]nc32)ccc1OCc1ccc(CCO)cc1C(F)(F)F` (centres unmarked) [Example 157, 7-(4-{[4-(2-hydroxyethyl)-2-(trifluoromethyl)phenyl]methoxy}-3-methoxyphenyl)-2H,4H,5H,6H, 7H-[1,2,3]triazolo[4,5-b]pyridin-5-one] are not above 316 nM and not below 8.
Take `COc1cc(C2CC(=O)Nc3n[nH]cc32)ccc1COc1ccc(C#CCO)cc1C(F)(F)F` (centres unmarked) [Example 119, 4-(4-{[4-(3-hydroxyprop-1-yn-1-yl)-2-(trifluoromethyl)phenoxy]methyl}-3-methoxyphenyl)-2H,4H,5H,6H,7H-pyrazolo[3,4-b]pyridin-6-one]: the IC50 on full length ERRα was not above 316 nM. In assay [1], the “mean pIC50” value is reported as not below 8.
In the case of `O=C1CC(c2ccc(COc3ccccc3S(F)(F)(F)(F)F)c(OC(F)(F)F)c2)c2c[nH]nc2N1` (centres unmarked) [Example 107, 4-(4-{[2-(pentafluoro-λ^6-sulfanyl)phenoxy]methyl}-3-(trifluoromethoxy)phenyl)-2H,4H,5H,6H, 7H-pyrazolo[3,4-b]pyridin-6-one], the results for the IC50 (on full length ERRα; in assay [1]) were not above 316 nM and 10 to 100 nM, respectively.
In the case of `COc1cc(C2CC(=O)Nc3n[nH]cc32)ccc1OCc1ccc(CCN)cc1C(F)(F)F` (centres unmarked) [Example 150, 4-(4-{[4-(2-aminoethyl)-2-(trifluoromethyl)phenyl]methoxy}-3-methoxyphenyl)-2H,4H,5H,6H, 7H-pyrazolo[3,4-b]pyridin-6-one], the IC50 on full length ERRα was not above 316 nM; in assay [1] it was 100 to 1000 nM.
In the case of `COc1cc(C2CC(=O)Nc3n[nH]cc32)ccc1OCc1ccccc1OC(F)(F)F` (centres unmarked) [Example 24, 4-(3-methoxy-4-{[2-(trifluoromethoxy)phenyl]methoxy}phenyl)-2H,4H,5H,6H,7H-pyrazolo[3,4-b]pyridin-6-one], the IC50 on full length ERRα is not above 316 nM. In addition, the “mean pIC50” value in assay [1] is on record as not below 8.
On to `COc1cc(C2CC(=O)Nc3n[nH]cc32)ccc1OCc1ccc(NC(=O)CN)cc1C(F)(F)F` (centres unmarked) [Example 140, 2-amino-N-{4-[(2-methoxy-4-{6-oxo-2H,4H,5H,6H, 7H-pyrazolo[3,4-b]pyridin-4-yl}phenoxy)methyl]-3-(trifluoromethyl)phenyl}acetamide], for which the IC50 is not above 316 nM on full length ERRα and 100 to 1000 nM in assay [1].
`CCc1ccc(COc2ccc(-c3cc(=O)[nH]c4n[nH]cc34)cc2OC)c(C(F)(F)F)c1` [Example 175, 4-(4-{[4-ethyl-2-(trifluoromethyl)phenyl]methoxy}-3-methoxyphenyl)-2H,6H, 7H-pyrazolo[3,4-b]pyridin-6-one]: the IC50 at full length ERRα is not above 316 nM. In addition, in assay [1], the “mean pIC50” value was not below 8.
In the case of `COc1cc(C2CC(=O)Nc3n[nH]cc32)ccc1OCc1ccc(Br)cc1C(F)(F)F` (centres unmarked) [Example 33, 4-(4-{[4-bromo-2-(trifluoromethyl)phenyl]methoxy}-3-methoxyphenyl)-2H,4H,5H,6H,7H-pyrazolo[3,4-b]pyridin-6-one], at full length ERRα, the IC50 was not above 316 nM. For the same compound, the “mean pIC50” value in assay [1] is recorded as not below 8.
The corresponding values for `COc1ccc(COc2ccc(C3CC(=O)Nc4[nH]nnc43)cc2OC)c(C(F)(F)F)c1` (centres unmarked) [Example 91, 7-(3-methoxy-4-{[4-methoxy-2-(trifluoromethyl)phenyl]methoxy}phenyl)-3H,4H,5H,6H,7H-[1,2,3]triazolo[4,5-b]pyridin-5-one] are not above 316 nM and not below 8.
On to `O=C1CC(c2ccc(COc3ccc(Br)cc3C(F)(F)F)c(OC(F)(F)F)c2)c2c[nH]nc2N1` (centres unmarked) [Example 106, 4-(4-{[4-bromo-2-(trifluoromethyl)phenoxy]methyl}-3-(trifluoromethoxy)phenyl)-2H,4H,5H,6H,7H-pyrazolo[3,4-b]pyridin-6-one], for which the IC50 on full length ERRα is not above 316 nM; in assay [1] it was 10 to 100 nM.
In the case of `C=CCc1ccc(COc2ccc(C3CC(=O)Nc4n[nH]cc43)cc2OC)c(C(F)(F)F)c1` (centres unmarked) [Example 142, 4-(3-methoxy-4-{[4-(prop-2-en-1-yl)-2-(trifluoromethyl)phenyl]methoxy}phenyl)-2H,4H,5H,6H,7H-pyrazolo[3,4-b]pyridin-6-one], the IC50 at full length ERRα was not above 316 nM. In addition, the “mean pIC50” value in assay [1] is reported as not below 8.
In the case of `COc1cc(-c2cc(=O)[nH]c3n[nH]cc23)ccc1OCc1ccc(CCO)cc1C(F)(F)F` [Example 176, 4-(4-{[4-(2-hydroxyethyl)-2-(trifluoromethyl)phenyl]methoxy}-3-methoxyphenyl)-2H, 6H, 7H-pyrazolo[3,4-b]pyridin-6-one], the IC50 at full length ERRα is not above 316 nM. Further, in assay [1], the “mean pIC50” value was not below 8.
On the same counts, the results for `COc1cc(C2CC(=O)Nc3n[nH]cc32)ccc1OCc1ccccc1C(C)(C)C` (centres unmarked) [Example 40, 4-{4-[(2-tert-butylphenyl)methoxy]-3-methoxyphenyl}-2H,4H,5H,6H,7H-pyrazolo[3,4-b]pyridin-6-one] are not above 316 nM and not below 8.
Consider `COc1cc(C2CC(=O)Nc3n[nH]cc32)ccc1COc1ccc(C)cc1C(F)(F)F` (single isomer, unassigned; (-)) [Example 214, (−)-4-(3-methoxy-4-{[4-methyl-2-(trifluoromethyl)phenoxy]methyl}phenyl)-2H,4H,5H,6H,7H-pyrazolo[3,4-b]pyridin-6-one], for which, on full length ERRα, the IC50 was not above 316 nM. Moreover, in assay [1], the “mean pIC50” value is listed as not below 8.
Take `COc1cc(C2CC(=O)Nc3n[nH]cc32)ccc1OCc1ccc(F)cc1C(F)(F)F` (centres unmarked) [Example 9, 4-(4-{[4-fluoro-2-(trifluoromethyl)phenyl]methoxy}-3-methoxyphenyl)-2H,4H,5H,6H, 7H-pyrazolo[3,4-b]pyridin-6-one]: the values for the IC50 (at full length ERRα; in assay [1]) were not above 316 nM and 10 to 100 nM, respectively.
In the case of `COc1cc(-c2cc(=O)[nH]c3n[nH]cc23)ccc1OCc1ccc(F)cc1C(F)(F)F` [Example 179, 4-(4-{[4-fluoro-2-(trifluoromethyl)phenyl]methoxy}-3-methoxyphenyl)-2H,6H, 7H-pyrazolo[3,4-b]pyridin-6-one], at full length ERRα, the IC50 was not above 316 nM. Further, the “mean pIC50” value in assay [1] is given as not below 8.
